Results as given in patent US20100266696A1, “Organic Compounds” (priority 2007, published 2010).

How the values were obtained:
[1] = Laser light diffraction particle size analysis of high pressure homogenised glycopyrrolate suspension (Example 1); assay type: physicochemical; conditions: suspension in acetone after homogenisation at 950 bar, 48 passes; ultrasonication 60 W 480 s
Protocol: The suspension is then homogenised at a pressure drop of 950 bar, a reflux temperature of about 9-12.5° C., and a mixing/reflux vessel jacket temperature of 2° C. The piston pump stroke frequency is about 60, and the process is run for a total of 60 minutes, which is equivalent to a total of 48 passes or homogenisation cycles. Samples are also taken as in process control after 15 (12 passes) and 30 (24 passes) minutes, and analyzed along with the final product.
(§1) The crystallites appear to break into fairly regular, rectangularly shaped fragments of smaller size in the early stages of homogenization, which are subsequently comminuted and smoothed further. Particle size decreases further at an increasing number of homogenization cycles, after 24 passes the average particle size is around 1 μm already, and the particle edges are noticeably more rounded than initially or after only 12 passes. No significant changes are observed in particles isolated after 24 and 48 passes through the homogeniser.

[2] = final product after spray drying; ultrasonication 60 W 480 s
Protocol: The spray dryer is operated at an outlet temperature of around 75-78° C., i.e., above the boiling point of neat acetone, in order to avoid solvent condensation in the spray tower. The inlet temperature is set to 100° C., and the experiment initiated by spraying pure solvent. The spray rate is set to a flow of 5 mL/min using a Büchi lab scale spray dryer, with the aspirator operated at 100%. The nitrogen flow rate is kept constant at 600-700 l/h. At these operating conditions, the homogenised suspension is sprayed, and a dry powder is collected in a cyclone followed by a cloth filter.
Once again ultrasonication at 60 W is applied for 480 seconds to break any loose aggregates in the product prior to starting the particle size distribution measurement.
The final product after spray drying is re-characterized after 25 days of storage at ambient conditions as well as at 4° C.

[3] = Scanning electron microscopy of glycopyrrolate materials (Example 1); assay type: physicochemical
Excerpt: as §1
(§2) Particles still appear as rectangularly shaped fragments with smoothed edges and an average size around or slightly above 1 μm. The specific surface area of the dried suspension (analysed by adsorption analysis, BET surface measurement) is determined to be 4.0 m^2/g.

[4] = BET specific surface area (adsorption analysis); assay type: physicochemical
Protocol: as §2
The specific surface area of the final product by BET analysis is determined to be 4.0 m2/g.

[5] = X-ray powder diffraction and DSC crystallinity; assay type: physicochemical; conditions: final product after spray drying
[6] = Aggregation/agglomeration tendency: jet-milled vs high pressure homogenised and dried (Example 4); assay type: physicochemical
Excerpt: The mill is equipped with 3 nozzles of 1.9 mm diameter. […] As a consequence, the material has to be co-milled with a force control agent such as magnesium stearate in order to obtain a freely flowable non-agglomerating micronised drug substance.

## C[N+]1(C)CCC(OC(=O)C(O)(c2ccccc2)C2CCCC2)C1.[Br-] (stereo not shown) [glycopyrrolate, 3-[(cyclopentyl-hydroxyphenylacetyl)oxy]-1,1-dimethyl-pyrrolidinium bromide]
[1]
  ×10 mean particle size: 0.6 μm
  ×50 mean particle size: 1.3 μm
  ×90 mean particle size: 3.1 μm
[2]
  mean particle size, ×50: 1.7 μm
  ×90 value: 3.6 μm
[3]; after 24 passes of homogenisation
  average particle size: around 1 μm
[3]; after homogenisation step
  average size by scanning electron microscopy: below 5 μm
[3]; spray dried glycopyrrolate
  average size by SEM: ~1 μm
[4]; dried suspension
  specific surface area (BET): 4.0 m^2/g
[4]; final product
  specific surface area by BET analysis: 4.0 m2/g
[5]
  crystallinity (XPRD and DSC) compared to coarse drug substance: no change in crystallinity
[6]; high pressure homogenised and subsequently dried material (Examples 1, 2 and 3)
  tendency to aggregate or agglomerate: no tendency to aggregate or agglomerate
[6]; micronised in fluid bed opposed jet mill
  tendency to aggregate and agglomerate: high tendency to aggregate and agglomerate
